Key:
Format in all cases: in vivo
[1] = system: Erysiphe graminis f.sp. hordei; experiment: Erysiphe test (barley)/curative; conditions: curative, sprayed 48 hours after inoculation, application rate 250 g/ha, evaluation 7 days after inoculation, 100% = no infection
Description: Erysiphe Test (barley)/curative Solvent: 10 parts by weight of N-methyl-pyrrolidone Emulsifier: 0.6 parts by weight of alkylaryl polyglycol ether To product a suitable preparation of active compound 1 part by weight of active compound is mixed with the stated amounts of solvent and emulsifier, and the concentrate is diluted with water to the desired concentration. To test for curative activity, young plants are dusted with spores of Erysiphe graminis f.sp. hordei. 48 hours after the incubation, the plants are sprayed with the preparation of active compound at the stated application rate. The plants are placed in a greenhouse at a temperature of approximately 20° C. and a relative atmospheric humidity of approximately 80%, in order to promote the development of mildew pustules.

[2] = system: Erysiphe graminis f.sp. hordei; experiment: Erysiphe test (barley)/protective; conditions: protective, application rate 250 g/ha, evaluation 7 days after inoculation, 100% = no infection
Description: (§1) Erysiphe test (barley)/protective Solvent: 10 parts by weight of N-methyl-pyrrolidone Emulsifier: 0.6 parts by weight of alkylaryl polyglycol ether To prepare a suitable preparation of active compound, 1 part by weight of active compound if mixed with the stated amounts of solvent and emulsifier, and the concentrate is diluted with water to the desired concentration. To test for protective activity, young plants are sprayed with the preparation of active compound at the stated application rate. After the spray coating has dried on, the plants are dusted with spores of Erysiphe graminis f.sp. hordei. The plants are placed in a greenhouse at a temperature of approximately 20° C. and a relative atmospheric humidity of approximately 80%, in order to promote the development of mildew pustules.

[3] = system: Erysiphe graminis f.sp. tritci; experiment: Erysiphe test (wheat)/protective; conditions: protective, application rate 250 g/ha, evaluation 7 days after inoculation, 100% = no infection
Description: as §1, with “test (wheat)/protective” for “test (barley)/protective”, “compound is” for “compound if”, “graminis […].” for “graminis f.sp. hordei.”

Fusarium graminearum = conditions: barley, protective, application rate 250 g/ha, evaluation 4 days after inoculation; 100% = no infection
[4] = system: W strain of Pseudocercosporella herpotrichoides; experiment: Pseudocercosporella herpotrichoides test; W strain (wheat)/protective; conditions: protective, application rate 250 g/ha, evaluation 21 days after inoculation, 100% = no infection
Description: Pseudocercosporella herpotrichoides test; W strain (wheat/protective Solvent: 10 parts by weight of N-methyl-pyrrolidone Emulsifier: 0.6 part by weight of alkylaryl polyglycol ether To product a suitable preparation of active compound, 1 part by weight of active compound is mixed with the stated amounts of solvent and emulsifier, and the concentrate is diluted with water to the desired concentration. To test for protective activity, young plants are sprayed with the preparation of active compound at the stated application rate. After the spray coating has dried on, the plants are inoculated at the base of the stem with spores of the W strain of Pseudocercosporella herpotrichoides. The plants are placed in a greenhouse at a temperature of approximately 10° C. and a relative atmospheric humidity of approximately 80%.

Puccinia recondita = experiment: Puccinia test (wheat)/curative; conditions: curative, sprayed 48 hours after inoculation, application rate 250 g/ha, evaluation 10 days after inoculation, 100% = no infection
Description: Puccinia test (wheat/curative Solvent: 10 parts by weight of N-methyl-pyrrolidone Emulsifier: 0.6 part by weight of alkylaryl polyglycol ether To product a suitable preparation of active compound, 1 part by weight of active compound is mixed with the stated amounts of solvent and emulsifier, and the concentrate is diluted with water to the desired concentration. […] 48 hours after the inoculation the plants are sprayed with the preparation of active compound at the stated application rate. The plants are placed in a greenhouse at a temperature of approximately 20° C. and a relative atmospheric humidity of approximately 80%, in order to promote the development of rust pustules.

Sphaerotheca fuliginea = experiment: Sphaerotheca test (cucumber)/protective; conditions: protective, application rate 50 g/ha, evaluation 10 days after inoculation, 100% = no infection
Description: (§2) Sphaerotheca test (cucumber/protective Solvent: 47 parts by weight of acetone Emulsifier: 3 parts by weight of alkylaryl polyglycol ether To produce a suitable preparation of active compound, 1 part by weight of active compound is mixed with the stated amounts of solvent and emulsifier, and the concentrate is diluted with water to the desired concentration. To test for protective activity, young plants are sprayed with the preparation of active compound at the stated application rate. After the spray coating has dried on, the plants are inoculated with an aqueous spore suspension of Sphaerotheca fuliginea. The plants are subsequently placed in a greenhouse at 23 to 24° C. and at a relative atmospheric humidity of approximately 75%.

Podosphaera leucotricha = experiment: Podosphaera test (apple)/protective; conditions: protective, application rate 50 g/ha, evaluation 10 days after inoculation, 100% = no infection
Description: as §2, with “Podosphaera” for “Sphaerotheca”, “(apple)/protective” for “(cucumber/protective”, “product” for “produce”, “the causative organism of apple mildew Podosphaera leucotricha.” for “Sphaerotheca fuliginea.”, “then” for “subsequently”, “23°” for “23 to 24°”

Venturia inaequalis = experiment: Venturia test (apple)/protective; conditions: protective, application rate 50 g/ha, evaluation 12 days after inoculation, 100% = no infection
Description: Venturia test (apple)/protective Solvent: 47 parts by weight of acetone Emulsifier: 3 parts by weight of alkylaryl polyglycol ether To produce a suitable preparation of active compound, 1 part by weight of active compound is mixed with the stated amounts of solvent and emulsifier, and the concentrate is diluted with water to the desired concentration. To test for protective activity, young plants are sprayed with the preparation of active compound at the stated application rate. After the spray coating has dried on, the plants are inoculated with an aqueous conidia suspension of the causative organism of apple scab Venturia inaequalis and then remain placed at 20° C. and a relative atmospheric humidity of approximately 70% for 1 day. The plants are then placed in a greenhouse at 20° C. and at a relative atmospheric humidity of approximately 70%.

In the case of `OC(Cc1ccccc1Cl)(Cn1ncnc1SSc1ncnn1CC(O)(Cc1ccccc1Cl)C1(Cl)CC1)C1(Cl)CC1` (centres unmarked) [Example I-1, di-{1-[2-(1-chlorocyclopropyl)-3-(2-chloro-phenyl)-2-hydroxy-propyl-1]-1,2,4-triazol-5-yl} disulphide], the Efficacy in % [1] is reported as 100%, the Efficacy in % [2] is reported as 100% and the Efficacy in % [3] is reported as 100%. It also gave an Efficacy in % (Fusarium graminearum) of 100%, an Efficacy in % [4] of 100% and an Efficacy in % (Puccinia recondita) of 100%. It also gave an Efficacy in % (Sphaerotheca fuliginea) of 100%, an Efficacy in % (Podosphaera leucotricha) of 100% and an Efficacy in % (Venturia inaequalis) of 100%.

`Fc1ccc(C2(Cn3ncnc3SSc3ncnn3CC3(c4ccc(F)cc4)OC3c3ccccc3Cl)OC2c2ccccc2Cl)cc1` (centres unmarked) [Example I-2] was tested, and the Efficacy in % (Sphaerotheca fuliginea) was 92% and the Efficacy in % (Podosphaera leucotricha) was 96%.
